Data: paper PMC10747733, “N-Substituted 2-(Benzenosulfonyl)-1-Carbotioamide Derivatives Exert Antimicrobial and Cytotoxic Effects via Aldehyde Dehydrogenase Pathway: Synthesis, In Silico and In Vitro Studies” (Pharmaceuticals, 2023)
Converted amounts (≈) assume the structure as drawn.

Experiments:
Type in all cases: cell-based
[1] = system: Micrococcus luteus ATCC 10240; test: Broth microdilution antimicrobial activity
Source text: (§1) Reference strains of microorganisms that came from American Type Culture Collection (ATCC) (Manassas, VA, USA) were used for this study. The representative Gram-positive bacteria were as follows: Staphylococcus aureus ATCC 25923, Staphylococcus aureus ATCC 29213, Staphylococcus aureus ATCC 43300, Staphylococcus epidermidis ATCC 12228, Enterococcus faecalis ATCC 29212, Micrococcus luteus ATCC 10240, Bacillus subtilis ATCC 6633 and Bacillus cereus ATCC 10876. While, those of Gram-negative bacteria were as follows: Bordetella bronchiseptica ATCC 4617, Escherichia coli ATCC 25922, Klebsiella pneumoniae ATCC 13883, Proteus mirabilis ATCC 12453, Salmonella Typhimurium ATCC 14028 and Pseudomonas aeruginosa ATCC 9027. Moreover, the following fungi belonging to yeasts were used: Candida albicans ATCC 10231, Candida albicans ATCC 2091, Candida parapsilosis ATCC 22019, Candida glabrata ATCC 90030 and Candida krusei ATCC 14243.
(§2) The new compounds WZ1–WZ4 were assayed for both antibacterial and antifungal activity using the broth microdilution method in accordance with the European Committee on Antimicrobial Susceptibility Testing (EUCAST) and Clinical and Laboratory Standards Institute (CLSI) guidelines. The microorganisms were grown at 35 °C for 18–24 h on appropriate media (nutrient agar and Sabouraud for bacteria and fungi, respectively) (BioMaxima S.A., Lublin, Poland). Next, microbial suspensions with an optical density of 0.5 McFarland standard scale (in sterile 0.85% NaCl) were prepared. In turn, the tested compounds were initially diluted at 50 mg/mL in dimethyl sulfoxide (DMSO) and the broth microdilution method was used to assess their minimum inhibitory concentrations (MICs). For these studies, selective broth Mueller-Hinton (MH) (BioMaxima S.A., Lublin, Poland) and RPMI (Roswell Park Memorial Institute) 1640 with MOPS (3-(N-Morpholino)propanesulfonic acid) (Sigma-Aldrich Chemicals, St. Louis, MO, USA) were used for bacteria and fungi, respectively. The antimicrobial effect of compounds WZ1–WZ4 was determined in the concentration range from 2000 to 0.98 µg/mL.
(§3) Then, the microbial suspensions were introduced into each well of the microplate and incubated for 18–24 h at 35 °C. […] The reference drugs ciprofloxacin or vancomycin (against bacteria) and nystatin (against fungi) (Sigma-Aldrich Chemicals, St. Louis, MO, USA) were also used. Next, the values of the minimum bactericidal concentration (MBC) and minimum fungicidal concentration (MFC) of WZ1–WZ4 were assessed. For this purpose, the cultures from each MIC determination well were transferred to a suitable solid medium and incubated under appropriate conditions. The lowest concentrations of compounds without microbial growth were read as MBC or MFC. The studies were performed in triplicate and representative data were gathered.
(§4) In turn, the MBC/MIC or MFC/MIC ratios were used to assess bactericidal/fungicidal (MBC/MIC or MFC/MIC ≤ 4) and bacteriostatic/fungistatic (MBC/MIC or MFC/MIC > 4) effect of these compounds [93].

[2] = system: Proteus mirabilis ATCC 12453; test: Broth microdilution antimicrobial activity
Source text: as §1, §2, §3, §4

[3] = system: Salmonella Typhimurium ATCC 14028; test: Broth microdilution antimicrobial activity
Source text: as §1, §2, §3, §4

[4] = system: Escherichia coli ATCC 25922; test: Broth microdilution antimicrobial activity
Source text: as §1, §2, §3, §4

[5] = system: Staphylococcus aureus ATCC 25923; test: Broth microdilution antimicrobial activity
Source text: as §1, §2, §3, §4

[6] = system: Staphylococcus epidermidis ATCC 12228; test: Broth microdilution antimicrobial activity
Source text: as §1, §2, §3, §4

[7] = system: Bordetella bronchiseptica ATCC 4617; test: Broth microdilution antimicrobial activity
Source text: as §1, §2, §3, §4

[8] = system: Klebsiella pneumoniae ATCC 13883; test: Broth microdilution antimicrobial activity
Source text: as §1, §2, §3, §4

[9] = system: Staphylococcus aureus ATCC 43300; test: Broth microdilution antimicrobial activity; conditions: Staphylococcus aureus ATCC 43300
Source text: as §1, §2, §3, §4

[10] = system: Pseudomonas aeruginosa ATCC 9027; test: Broth microdilution antimicrobial activity
Source text: as §1, §2, §3, §4

[11] = system: Bacillus subtilis ATCC 6633; test: Broth microdilution antimicrobial activity
Source text: as §1, §2, §3, §4

[12] = system: Staphylococcus aureus ATCC 29213; test: Broth microdilution antimicrobial activity; conditions: Staphylococcus aureus ATCC 29213
Source text: as §1, §2, §3, §4

[13] = system: Bacillus cereus ATCC 10876; test: Broth microdilution antimicrobial activity
Source text: as §1, §2, §3, §4

[14] = system: Candida parapsilosis ATCC 22019; test: Broth microdilution antimicrobial activity
Source text: as §1, §2, §3, §4

[15] = system: Candida albicans ATCC 10231; test: Broth microdilution antimicrobial activity
Source text: as §1, §2, §3, §4

[16] = system: Candida glabrata ATCC 90030; test: Broth microdilution antimicrobial activity
Source text: as §1, §2, §3, §4

[17] = system: Candida krusei ATCC 14243; test: Broth microdilution antimicrobial activity
Source text: as §1, §2, §3, §4

[18] = system: Candida albicans ATCC 2091; test: Broth microdilution antimicrobial activity
Source text: as §1, §2, §3, §4

[19] = system: Enterococcus faecalis ATCC 29212; test: Broth microdilution antimicrobial activity; conditions: Enterococcus faecalis ATCC 29212
Source text: as §1, §2, §3, §4

[20] = system: Erythrocytes from fresh sheep blood; test: in vitro
Method: The toxicity of WZ1–WZ4 compounds towards red blood cells was tested using the erythrocyte lysis assay (ELA). Erythrocytes from fresh sheep blood (BioMaxima S.A., Poland) were centrifuged and washed with 0.85% NaCl. Next, 100 μL of a 2% suspension of red blood cells in physiological saline was added to the wells of microtiter plate. The double dilutions of compounds WZ1–WZ4 were prepared in the range of 2000–15.62 μg/mL. Appropriate controls were used to assess the hemolytic potential of tested compounds, i.e., 100% lysis of erythrocytes using 4% Triton X-100 (Pol-Aura, Różnowo, Poland) and 0% lysis in saline solution. Next, all sample plates were incubated (1 h at 37 °C), centrifuged for 10 min to separate unlysed red blood cells, and the supernatant was placed in a new plate. The ELA is a biological test by which the lytic response can be measured spectrophotometrically (at a wavelength of 450 nm) by the amount of hemoglobin released. The hemolysis percentage was calculated according to the following equation:(1) % Hemolysis = A450 of test compound treated sample − A450 of buffer treated sample/A450 of 4% Triton X100 treated samples − A450 of buffer treated sample × 100

O=C(O)c1cn(C2CC2)c2cc(N3CCNCC3)c(F)cc2c1=O [CIP, ciprofloxacin, reference compound] was tested, and the MBC/MIC [1] was 2, the MBC ([1]; ATCC10240) was 1.95 µg/mL (≈ 5.89 µM) and the MIC ([1]; ATCC10240) was 0.98 µg/mL (≈ 2.96 µM). The MBC/MIC [2] was 1, the MBC ([2]; ATCC12453) was 0.03 µg/mL (≈ 0.0905 µM) and the MIC ([2]; ATCC12453) was 0.03 µg/mL (≈ 0.0905 µM). It also gave an MBC/MIC [3] of 1, an MBC ([3]; Salmonella enterica) of 0.06 µg/mL (≈ 0.181 µM) and an MIC ([3]; Salmonella enterica) of 0.06 µg/mL (≈ 0.181 µM). For the same molecule, the MBC/MIC [4] was 2, the MBC ([4]; ATCC25922) was 0.008 µg/mL (≈ 0.0241 µM) and the MIC ([4]; ATCC25922) was 0.004 µg/mL (≈ 0.0121 µM). For the same molecule, the MBC/MIC [5] was 1, the MBC ([5]; ATCC25923) was 0.48 µg/mL (≈ 1.45 µM) and the MIC ([5]; ATCC25923) was 0.48 µg/mL (≈ 1.45 µM). The MBC/MIC [6] was 1, the MBC ([6]; ATCC12228) was 0.12 µg/mL (≈ 0.362 µM) and the MIC ([6]; ATCC12228) was 0.12 µg/mL (≈ 0.362 µM). It also gave an MBC/MIC [7] of 1, an MBC ([7]; ATCC4617) of 0.98 µg/mL (≈ 2.96 µM) and an MIC ([7]; ATCC4617) of 0.98 µg/mL (≈ 2.96 µM). The MBC/MIC [8] was 2, the MBC ([8]; ATCC13883) was 0.24 µg/mL (≈ 0.724 µM) and the MIC ([8]; ATCC13883) was 0.12 µg/mL (≈ 0.362 µM). The MBC ([9]; ATCC43300) was 0.24 µg/mL (≈ 0.724 µM), the MIC ([9]; ATCC43300) was 0.24 µg/mL (≈ 0.724 µM) and the MBC/MIC [9] was 1. The MBC/MIC [10] was 2, the MBC ([10]; ATCC9027) was 0.98 µg/mL (≈ 2.96 µM) and the MIC ([10]; ATCC9027) was 0.48 µg/mL (≈ 1.45 µM). The MBC/MIC [11] was 1, the MBC ([11]; ATCC6633) was 0.03 µg/mL (≈ 0.0905 µM) and the MIC ([11]; ATCC6633) was 0.03 µg/mL (≈ 0.0905 µM). The MBC ([12]; ATCC29213) was 0.48 µg/mL (≈ 1.45 µM), the MIC ([12]; ATCC29213) was 0.48 µg/mL (≈ 1.45 µM) and the MBC/MIC [12] was 1. The MBC/MIC [13] was 2, the MBC ([13]; ATCC10876) was 0.12 µg/mL (≈ 0.362 µM) and the MIC ([13]; ATCC10876) was 0.06 µg/mL (≈ 0.181 µM).
Molecule C[C@@H]1[C@H](O)[C@@H](C)/C=C/C=C/CC/C=C/C=C/C=C/C=C/C(O[C@H]2O[C@H](C)[C@@H](O)[C@H](N)[C@@H]2O)CC2O[C@](O)(CC(O)C(O)CCC(O)CC(O)CC(O)CC(=O)O[C@H]1C)CC(O)C2C(=O)O (stereo partly shown) [NY, nystatin, reference compound] has an MFC [14] of 0.48 µg/mL (≈ 0.518 µM), an MFC/MIC [14] of 2 and an MIC [14] of 0.24 µg/mL (≈ 0.259 µM). For the same molecule, the MFC [15] was 0.48 µg/mL (≈ 0.518 µM), the MFC/MIC [15] was 1 and the MIC [15] was 0.48 µg/mL (≈ 0.518 µM). For the same molecule, the MFC [16] was 0.48 µg/mL (≈ 0.518 µM), the MFC/MIC [16] was 2 and the MIC [16] was 0.24 µg/mL (≈ 0.259 µM). It also gave an MFC [17] of 0.24 µg/mL (≈ 0.259 µM), an MFC/MIC [17] of 1 and an MIC [17] of 0.24 µg/mL (≈ 0.259 µM). For the same molecule, the MFC [18] was 0.24 µg/mL (≈ 0.259 µM), the MFC/MIC [18] was 1 and the MIC [18] was 0.24 µg/mL (≈ 0.259 µM).
With CN[C@H](CC(C)C)C(=O)N[C@H]1C(=O)N[C@@H](CC(N)=O)C(=O)N[C@H]2C(=O)N[C@H]3C(=O)N[C@H](C(=O)N[C@H](C(=O)O)c4cc(O)cc(O)c4-c4cc3ccc4O)[C@H](O)c3ccc(c(Cl)c3)Oc3cc2cc(c3O[C@@H]2O[C@H](CO)[C@@H](O)[C@H](O)[C@H]2O[C@H]2C[C@](C)(N)[C@H](O)[C@H](C)O2)Oc2ccc(cc2Cl)[C@H]1O [VA, vancomycin, reference compound] the MBC [19] was 1.95 µg/mL (≈ 1.35 µM), the MBC/MIC [19] was 2 and the MIC [19] was 0.98 µg/mL (≈ 0.676 µM).
Triton X-100 [reference compound] gave an erythrocyte lysis [20] of 100%.
